Measured values taken from patent publication US20250051347A1, “BIFUNCTIONAL CHIMERIC HETEROCYCLIC COMPOUND AND USE THEREOF AS ANDROGEN RECEPTOR DEGRADER” (Hinova Pharmaceuticals, Inc., priority 2021, published 2025).

target: T1, androgen receptor (AR) splicing variant AR-v7 (Homo sapiens, UniProt P10275); test: Degradation activity on androgen receptor splicing variant AR-v7 in 22RV1 cells (ELISA); assay type: cell-based; conditions: AR-v7 degradation in 22RV1 cells, 48 h, class symbols
T1 construct: The degradation activity of compounds on AR-v7 in 22RV1 cells; host or cells: 22RV1 cells
T1 sequence (P10275 1-644 isoform P10275-3): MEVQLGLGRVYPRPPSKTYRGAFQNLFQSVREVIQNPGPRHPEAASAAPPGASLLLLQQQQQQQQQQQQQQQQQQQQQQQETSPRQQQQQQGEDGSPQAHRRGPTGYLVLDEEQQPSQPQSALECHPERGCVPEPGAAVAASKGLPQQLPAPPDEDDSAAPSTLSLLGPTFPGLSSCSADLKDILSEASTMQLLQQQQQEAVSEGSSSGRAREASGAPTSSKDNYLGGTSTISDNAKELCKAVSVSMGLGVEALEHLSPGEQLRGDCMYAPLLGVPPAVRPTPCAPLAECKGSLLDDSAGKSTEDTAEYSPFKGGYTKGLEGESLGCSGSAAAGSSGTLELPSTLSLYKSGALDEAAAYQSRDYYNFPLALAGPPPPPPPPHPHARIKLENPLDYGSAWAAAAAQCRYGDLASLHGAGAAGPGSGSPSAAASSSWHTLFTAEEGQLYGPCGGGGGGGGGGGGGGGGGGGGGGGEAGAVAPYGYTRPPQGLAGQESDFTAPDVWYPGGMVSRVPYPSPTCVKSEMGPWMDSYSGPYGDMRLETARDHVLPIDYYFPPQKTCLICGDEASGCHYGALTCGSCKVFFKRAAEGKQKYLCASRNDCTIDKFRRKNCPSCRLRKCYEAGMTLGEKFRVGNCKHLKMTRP
Procedure: The degradation activity of the compound of the present invention on the androgen receptor splicing variant AR-V7 was analyzed using enzyme-linked immunosorbent assay (ELISA).
The plate was cultured in a 5% CO2 cell incubator at 37° C. for 2 days until the cells adhered to the wall. • 2) The drug was prepared into 10 mM stock solution with dimethylsulfoxide (DMSO). […] The plate was gently shaken and mixed. In addition, negative control wells (only containing culture medium) and positive control wells (only containing cells and DMSO) were set. • 3) After the cells were cultured in an incubator for 48 h, the medium was removed and the cells were rinsed once with ice cold PBS. Then, ice-cold 1× cell lysis buffer was added to each well of the cell culture plate. After the plate was incubated on ice for 15 min, the plate was tapped to mix. • 4) The supernatant of the cell lysate was transferred from the cell culture plate to a […] plate for ELISA. • 5) The newly prepared Capture antibody (green) was mixed with the newly prepared HRP-labeled antibody (red), and then the antibody mixture was added to the above 96-well ELISA plate. • 6) The ELISA plate was sealed with plastic film, and then incubated in a 25° C. incubator for 1 h. • 7) The washing buffer was added to each well, and then TMB substrate was added to each well of the ELISA plate. Subsequently, the plate was cultured in an incubator at 37° C. for 5 min. • 8) 100 μl of stop solution was added to each well of the ELISA plate, and the plate was gently tapped for several seconds. The absorbance was read at 450 nm within 30 min. The data were analyzed by the Dose-response equation in the software GraphPad Prism8, to obtain DC50 and Dmax values.

Compound	DC50 [nM]
CCS(=O)(=O)Nc1nccc(COc2ccc(C(C)(C)c3ccc(OCCCCCCCCOCCCCNc4ccc5c(c4)C(=O)N(C4CCC(=O)NC4=O)C5=O)cc3)cc2)n1 (stereo not drawn) [Example 44]	101 to 1000
CC(C)(c1ccc(OCc2ccnc(NS(C)(=O)=O)n2)cc1)c1ccc(OC2CN(c3cccc4c3C(=O)N(C3CCC(=O)NC3=O)C4=O)C2)cc1 (stereo not drawn) [Example 47, N-(4-((4-(2-(4-((1-(2-(2,6-dioxopiperidin-3-yl)-1,3-dioxoisoindolin-4-yl)azetidin-3-yl)oxy)phenyl)propan-2-yl)phenoxy)methyl)pyrimidin-2-yl)methanesulfonamide]	101 to 1000
CC(C)(c1ccc(OCc2ccnc(NS(C)(=O)=O)n2)cc1)c1ccc(OCC2CN(c3cccc4c3C(=O)N(C3CCC(=O)NC3=O)C4=O)C2)cc1 (stereo not drawn) [Example 49, N-(4-((4-(2-(4-((1-(2-(2,6-dioxopiperidin-3-yl)-1,3-dioxoisoindolin-4-yl)azetidin-3-yl)methoxy)phenyl)propan-2-yl)phenoxy)methyl)pyrimidin-2-yl)methanesulfonamide]	1000 to 5000
CC(C)(c1ccc(OCCCCCCCCOCCCCNc2ccc3c(c2)C(=O)N(C2CCC(=O)NC2=O)C3=O)cc1)c1ccc(OCc2ccnc(NS(=O)(=O)C3CC3)n2)cc1 (stereo not drawn) [Example 50]	101 to 1000
CC(C)(c1ccc(OCCCCCCCCOCCCCNc2ccc3c(c2)C(=O)N(C2CCC(=O)NC2=O)C3=O)cc1)c1ccc(OCc2cnc(NS(C)(=O)=O)nc2)cc1 (stereo not drawn) [Example 51]	101 to 1000
CC(C)(c1ccc(OCCNc2cccc3c2C(=O)N(C2CCC(=O)NC2=O)C3=O)cc1)c1ccc(OCc2ccnc(NS(C)(=O)=O)n2)cc1 (stereo not drawn) [Example 53, N-(4-((4-(2-(4-(2-((2-(2,6-dioxopiperidin-3-yl)-1,3-dioxoisoindolin-4-yl)amino)ethoxy)phenyl)isopropan-2-yl)phenoxy)methyl)pyrimidin-2-yl)methanesulfonamide]	1000 to 5000

same assay, conditions: AR-v7 degradation in 22RV1 cells, 48 h, numeric values

Compound	DC50 [nM]
CC(C)(c1ccc(OCc2ccnc(NS(C)(=O)=O)n2)cc1)c1ccc(OCC2CCN(CCCOCCCNc3ccc4c(c3)C(=O)N(C3CCC(=O)NC3=O)C4=O)CC2)cc1 (stereo not drawn) [Example 40]	> 10000
CC(C)(c1ccc(OCc2ccnc(NS(C)(=O)=O)n2)cc1)c1ccc(OC[C@H]2CC[C@H](CN3CCC(CN4CCN(c5ccc6c(c5)C(=O)N(C5CCC(=O)NC5=O)C6=O)CC4)CC3)CC2)cc1 (stereo partly drawn) [Example 43]	> 10000
CC(C)(c1ccc(OCc2ccnc(NS(C)(=O)=O)n2)cc1)c1ccc(OCC2CCN(C[C@H]3CC[C@H](CN4CCN(c5ccc6c(c5)C(=O)N(C5CCC(=O)NC5=O)C6=O)CC4)CC3)CC2)cc1 (stereo partly drawn) [Example 45]	8760
CC(C)(c1ccc(OCc2ccnc(NS(C)(=O)=O)n2)cc1)c1ccc(OC2CN(c3ccc4c(c3)C(=O)N(C3CCC(=O)NC3=O)C4=O)C2)cc1 (stereo not drawn) [Example 46, N-(4-((4-(2-(4-((1-(2-(2,6-dioxopiperidin-3-yl)-1,3-dioxoisoindolin-5-yl)azetidin-3-yl)oxy)phenyl)propan-2-yl)phenoxy)methyl)pyrimidin-2-yl)methanesulfonamide]	> 5000
CC(C)(c1ccc(OCc2ccnc(NS(C)(=O)=O)n2)cc1)c1ccc(OCC2CN(c3ccc4c(c3)C(=O)N(C3CCC(=O)NC3=O)C4=O)C2)cc1 (stereo not drawn) [Example 48, N-(4-((4-(2-(4-((1-(2-(2,6-dioxopiperidin-3-yl)-1,3-dioxoisoindolin-5-yl)azetidin-3-yl)methoxy)phenyl)propan-2-yl)phenoxy)methyl)pyrimidin-2-yl)methanesulfonamide]	> 10000
CC(C)(c1ccc(OCCCCCOCCCOCC2CCN(c3ccc4c(c3)C(=O)N(C3CCC(=O)NC3=O)C4=O)C2)cc1)c1ccc(OCc2ccnc(NS(C)(=O)=O)n2)cc1 (stereo not drawn) [Example 52, N-(4-((4-(2-(4-((5-(3-((1-(2-(2,6-dioxopiperidin-3-yl)-1,3-dioxoisoindolin-5-yl)pyrrolidin-3-yl)methoxy)propoxy)pentyl)oxy)phenyl)propan-2-yl)phenoxy)methyl)pyrimidin-2-yl)methanesulfonamide]	> 10000
